In ChEMBL document CHEMBL1129847, “2-[(substituted)phenyl]-5-[1-(2-phenylazacycloheptyl)methyl]-1H-pyrroles with high affinity and selectivity for the dopamine D3 receptor” (Bioorg Med Chem Lett, 1997):

Legend:
[1] = biological target: D(3) dopamine receptor (Homo sapiens, UniProt P35462); assay: Ability to displace [125I]-sulpiride from human Dopamine receptor D3, expressed in CHO cells; assay type: cell-based
[2] = biological target: D(2) dopamine receptor (Homo sapiens, UniProt P14416); assay: Ability to displace [125I]sulpiride from human Dopamine receptor D2, expressed in CHO cells; assay type: cell-based
[3] = biological target: Dopamine receptors; D2 & D3 (Homo sapiens) (UniProt P14416+P35462); assay: Ratio of human dopamine D3 receptor to that of human dopamine D2 receptor was evaluated; assay type: protein assay

Sequence of D(3) dopamine receptor (P35462 whole entry): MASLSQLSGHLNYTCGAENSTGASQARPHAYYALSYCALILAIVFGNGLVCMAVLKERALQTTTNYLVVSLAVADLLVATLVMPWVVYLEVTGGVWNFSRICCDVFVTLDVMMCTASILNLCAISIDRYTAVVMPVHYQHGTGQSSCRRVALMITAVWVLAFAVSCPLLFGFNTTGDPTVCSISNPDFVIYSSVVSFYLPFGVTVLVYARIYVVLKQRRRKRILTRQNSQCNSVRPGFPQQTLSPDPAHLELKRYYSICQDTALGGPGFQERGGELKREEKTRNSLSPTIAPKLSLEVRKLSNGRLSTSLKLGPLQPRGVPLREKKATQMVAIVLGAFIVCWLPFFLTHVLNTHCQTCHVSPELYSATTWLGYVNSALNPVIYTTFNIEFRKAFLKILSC
Sequence of D(2) dopamine receptor (P14416 whole entry): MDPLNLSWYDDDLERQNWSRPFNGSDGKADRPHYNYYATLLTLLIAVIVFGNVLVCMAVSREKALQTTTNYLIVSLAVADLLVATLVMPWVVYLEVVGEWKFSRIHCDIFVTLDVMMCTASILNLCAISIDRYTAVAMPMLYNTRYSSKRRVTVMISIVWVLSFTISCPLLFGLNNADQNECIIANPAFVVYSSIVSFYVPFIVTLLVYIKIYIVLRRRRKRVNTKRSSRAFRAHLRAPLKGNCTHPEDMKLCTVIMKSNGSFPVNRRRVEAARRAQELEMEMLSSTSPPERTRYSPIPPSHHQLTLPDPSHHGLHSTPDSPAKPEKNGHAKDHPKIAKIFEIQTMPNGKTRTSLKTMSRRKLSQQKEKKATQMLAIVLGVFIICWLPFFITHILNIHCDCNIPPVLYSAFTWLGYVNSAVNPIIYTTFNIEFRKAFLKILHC

| Compound | Ki [1] | Ki [2] | Selectivity [3] |
| --- | --- | --- | --- |
| COc1ccc(S(=O)(=O)N(C)c2ccccc2)cc1-c1ccc(CN2CCCCC[C@H]2c2ccccc2)[nH]1 | 15.8 nM | 1580 nM | 100 |
| COc1ccc(S(=O)(=O)N2CCCc3ccccc32)cc1-c1ccc(CN2CCCCCC2c2ccccc2)[nH]1 (stereo unspecified) | 6.31 nM | 1000 nM | 150 |
| COc1ccc(S(=O)(=O)N2CCc3ccccc3C2)cc1-c1ccc(CN2CCCCCC2c2ccccc2)[nH]1 (stereo unspecified) | 2 nM | 200 nM | 100 |
| COc1ccc(S(=O)(=O)Oc2ccccc2)cc1-c1ccc(CN2CCCCCC2c2ccccc2)[nH]1 (stereo unspecified) | 10 nM | 1000 nM | 100 |
| CCN(Cc1ccccc1)S(=O)(=O)c1ccc(OC)c(-c2ccc(CN3CCCCCC3c3ccccc3)[nH]2)c1 (stereo unspecified) | 6.31 nM | 501 nM | 80 |
| COc1ccc(S(=O)(=O)Nc2ccccc2)cc1-c1ccc(CN2CCCCCC2c2ccccc2)[nH]1 (stereo unspecified) | 79.4 nM | 631 nM | 8 |
| COc1ccc(S(=O)(=O)N(C)c2ccccc2)cc1-c1ccc(CN2CCCCC[C@@H]2c2ccccc2)[nH]1 | 3.98 nM | 501 nM | 125 |
| COc1ccc(S(=O)(=O)Cc2ccccc2)cc1-c1ccc(CN2CCCCCC2c2ccccc2)[nH]1 (stereo unspecified) | 3.98 nM | 126 nM | 30 |
| COc1ccc(S(=O)(=O)N(C)c2ccccc2)cc1-c1ccc(CN2CCCCCC2c2ccccc2)[nH]1 (stereo unspecified) | 6.31 nM | 631 nM | 100 |

The remaining lines, values ahead:

| Ki [1] | Ki [2] | Selectivity [3] | Compound |
| --- | --- | --- | --- |
| 5.01 nM | 200 nM | 40 | COc1ccc(S(=O)(=O)C(C)C)cc1-c1ccc(CN2CCCCCC2c2ccccc2)[nH]1 (stereo unspecified) |
|  |  | 30 | CCS(=O)(=O)c1ccc(OC)c(-c2ccc(CN3CCCCCC3c3ccccc3)[nH]2)c1 (stereo unspecified) |
| 3.98 nM | 100 nM | 25 | CCS(=O)(=O)c1ccc(OC)c(-c2ccc(CN3CCCCC[C@H]3c3ccccc3)[nH]2)c1 |
| 1.58 nM | 100 nM | 60 | COc1ccc(S(=O)(=O)N2CCOCC2)cc1-c1ccc(CN2CCCCCC2c2ccccc2)[nH]1 (stereo unspecified) |
| 0.794 nM | 25.1 nM | 30 | CCS(=O)(=O)c1ccc(OC)c(-c2ccc(CN3CCCCC[C@@H]3c3ccccc3)[nH]2)c1 |
| 39.8 nM | 398 nM | 10 | COc1ccc(S(N)(=O)=O)cc1-c1ccc(CN2CCCCCC2c2ccccc2)[nH]1 (stereo unspecified) |
| 2 nM | 100 nM | 50 | COc1ccc(S(=O)(=O)N(C)C)cc1-c1ccc(CN2CCCCCC2c2ccccc2)[nH]1 (stereo unspecified) |
